Values of other authors in publication PMC2839367 (The Science of the total environment, 2010).

Tests used:
[1] = system: S. cerevisiae BLYES estrogen sensitive strain; conditions: ref Sanseverino et al (2005)
human estrogen receptor = conditions: ref Folmar et al (2002)

Substance: nonylphenol
- EC50 [1]: 17 µM
- EC50 (human estrogen receptor): 290 µM
